Results: publication PMC3573112, “Compatibility in the Ustilago maydis–Maize Interaction Requires Inhibition of Host Cysteine Proteases by the Fungal Effector Pit2” (PLoS Pathogens, 2013)
Where a SMILES comes first, the peptide text is derived from it. The star is where a group is joined. AMC = Cc1cc(=O)oc2cc(N*)ccc12; Cbz = O=C(OCc1ccccc1)*

Key:
[1] = target: T1, CP2 (corn cysteine protease 2) (Zea mays, UniProt Q43705); assay: fluorimetric protease assay with Z-Phe-Arg-AMC; type: biochemical; details: 10 min preincubation; 1 µM Z-Phe-Arg-AMC; pH 6.0; covalent
T1 construct: gene see1
T1 sequence (Q43705 143-360 limits assumed): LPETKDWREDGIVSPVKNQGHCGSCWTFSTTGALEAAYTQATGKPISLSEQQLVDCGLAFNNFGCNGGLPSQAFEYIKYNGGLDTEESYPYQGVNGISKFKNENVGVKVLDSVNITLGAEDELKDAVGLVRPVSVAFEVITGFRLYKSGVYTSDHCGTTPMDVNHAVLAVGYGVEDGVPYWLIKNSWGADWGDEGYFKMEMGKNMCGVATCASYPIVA

XCP2 = target: T2, XCP2 (Zea mays, UniProt B6TIC7); assay: fluorimetric protease assay (AMC release), apoplastic fluid; type: biochemical; details: 2 µM substrate; pH 6.0, room temperature; DTT
T2 construct: transiently expressed in Nicotiana benthamiana (pGreenII 0029); apoplastic fluid, not purified

CathepsinBIII (CatB) = target: T3, CathepsinBIII (CatB) (Zea mays, UniProt B6TLR9); assay: as above; type: biochemical; details: 2 µM substrate; pH 6.0, room temperature; DTT
T3 construct: transiently expressed in Nicotiana benthamiana (pGreenII 0029); apoplastic fluid, not purified
T3 sequence (B6TLR9 93-347): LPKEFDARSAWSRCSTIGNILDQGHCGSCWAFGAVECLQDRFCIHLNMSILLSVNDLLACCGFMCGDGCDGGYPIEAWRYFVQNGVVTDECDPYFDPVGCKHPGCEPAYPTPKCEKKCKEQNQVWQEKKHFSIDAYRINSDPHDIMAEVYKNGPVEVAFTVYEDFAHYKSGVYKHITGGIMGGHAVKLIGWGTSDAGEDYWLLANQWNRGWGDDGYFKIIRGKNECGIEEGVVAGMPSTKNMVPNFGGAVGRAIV

[2] = target: T1, CP2 (corn cysteine protease 2); assay: fluorimetric protease assay (AMC release, […] nm); type: biochemical; details: 1 µM substrate; pH 6.0
CP2 = target: T4, CP2 (Zea mays, UniProt Q43705); assay: fluorimetric protease assay (AMC release), apoplastic fluid; type: biochemical; details: 2 µM substrate; pH 6.0, room temperature; DTT
T4 construct: gene see1; transiently expressed in Nicotiana benthamiana (pGreenII 0029); apoplastic fluid, not purified
T4 sequence (Q43705 143-360): T1 sequence (Q43705 143-360 limits assumed)

CP1A = target: T5, CP1A (Zea mays, UniProt B6T669); assay: as above; type: biochemical; details: 2 µM substrate; pH 6.0, room temperature; DTT
T5 construct: transiently expressed in Nicotiana benthamiana (pGreenII 0029); apoplastic fluid, not purified

[3] = target: CP2 (corn cysteine protease 2) without signal peptide and prodomain, Gal4 activation domain fusion (pGADT7-CP2) (maize) (UniProt Q10717)

T2 sequence (B6TIC7 158-377): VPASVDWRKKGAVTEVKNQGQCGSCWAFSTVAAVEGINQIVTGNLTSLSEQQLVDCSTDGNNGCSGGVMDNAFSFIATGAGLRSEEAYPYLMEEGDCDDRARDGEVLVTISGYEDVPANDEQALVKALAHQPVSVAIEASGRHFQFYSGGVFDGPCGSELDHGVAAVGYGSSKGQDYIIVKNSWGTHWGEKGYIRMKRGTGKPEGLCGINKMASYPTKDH
T5 sequence (B6T669 130-463): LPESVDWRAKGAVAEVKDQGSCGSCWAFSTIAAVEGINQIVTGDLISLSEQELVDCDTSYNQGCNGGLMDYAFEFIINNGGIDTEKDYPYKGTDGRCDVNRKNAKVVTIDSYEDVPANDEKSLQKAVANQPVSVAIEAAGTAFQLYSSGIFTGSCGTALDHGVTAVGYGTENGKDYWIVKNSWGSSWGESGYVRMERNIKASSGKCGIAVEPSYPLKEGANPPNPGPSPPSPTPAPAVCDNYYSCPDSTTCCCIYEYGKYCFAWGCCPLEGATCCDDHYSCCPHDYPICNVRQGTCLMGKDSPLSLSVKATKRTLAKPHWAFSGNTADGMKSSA

CC(C)C[C@H](NC(=O)[C@H]1O[C@@H]1C(=O)O)C(=O)NCCCCN=C(N)N [E-64]
inhibition at 2.5 μM [1]: inhibited by addition of the specific small molecule cysteine protease inhibitor E-64

Cc1cc(=O)oc2cc(NC(=O)[C@H](CCCNC(=N)N)NC(=O)[C@H](Cc3ccccc3)NC(=O)OCc3ccccc3)ccc12 [Z-Phe-Arg-7-amido-4-methylcoumarin] (Cbz-Phe-Arg-{AMC})
fluorimetric protease assay (AMC release), apoplastic fluid (XCP2): Protease activity was determined using substrate Z-Phe-Arg-AMC
fluorimetric protease assay (AMC release), apoplastic fluid (CathepsinBIII (CatB)): Protease activity was determined using substrate Z-Phe-Arg-AMC
fluorimetric protease assay (AMC release, 460 nm) [2]: Protease-activity was determined using the fluorescent substrate Z-Phe-Arg-AMC
fluorimetric protease assay (AMC release), apoplastic fluid (CP2): Protease activity was determined using substrate Z-Phe-Arg-AMC
fluorimetric protease assay (AMC release), apoplastic fluid (CP1A): Protease activity was determined using substrate Z-Phe-Arg-AMC

GST-Pit2 (Pit2 without signal peptide with N-terminal GST-tag, pRSET-GST-PP-Pit2) (natural protein)
inhibition of the activity on Z-Phe-Arg-AMC of recombinant His-tagged CP2 (E. coli, refolded, activated by pH shift and pepsin) by 10 µM recombinant Pit2 (GST tag removed) [3]: 85 % inhibition
